Results taken from ChEMBL document CHEMBL3046027, “In vitro and in vivo antifungal activity of synthetic pure isothiocyanates against Sclerotinia sclerotiorum” (Pest Manag Sci, 2011).

Columns and labels:
Sclerotinia sclerotiorum [1] = assay: In vivo antifungal Sclerotinia sclerotiorum in Pepper (Capsicum annuum L. cv. Sera Demre) assessed as inhibition of mycelial growth in volatile phase at 150 umol/L measured after 10 to 14 weeks; format: functional
Sclerotinia sclerotiorum [2] = assay: In vivo antifungal Sclerotinia sclerotiorum in Pepper (Capsicum annuum L. cv. Sera Demre) assessed as inhibition of mycelial growth in volatile phase at 75 umol/L measured after 10 to 14 weeks; format: functional
Sclerotinia sclerotiorum [3] = assay: Antifungal activity against Sclerotinia sclerotiorum assessed as inhibition of mycelial growth in volatile phase at 751 umol/l measured at 20 degC after 5 days; format: functional; details: 120 h, read-out: GI
Sclerotinia sclerotiorum [4] = assay: Antifungal activity against Sclerotinia sclerotiorum assessed as inhibition of mycelial growth in volatile phase at 525 umol/l measured at 20 degC after 5 days; format: functional; details: 120 h, read-out: GI
Sclerotinia sclerotiorum [5] = assay: Antifungal activity against Sclerotinia sclerotiorum assessed as inhibition of mycelial growth in volatile phase at 375 umol/l measured at 20 degC after 5 days; format: functional; details: 120 h, read-out: GI
Sclerotinia sclerotiorum [6] = assay: Antifungal activity against Sclerotinia sclerotiorum assessed as inhibition of mycelial growth in volatile phase at 75 umol/l measured at 20 degC after 5 days; format: functional; details: 120 h, read-out: GI
Sclerotinia sclerotiorum [7] = assay: Antifungal activity against Sclerotinia sclerotiorum assessed as inhibition of mycelial growth in volatile phase at 38 umol/l measured at 20 degC after 5 days; format: functional; details: 120 h, read-out: GI
Sclerotinia sclerotiorum [8] = assay: Antifungal activity against Sclerotinia sclerotiorum assessed as inhibition of mycelial growth in contact phase at 2252 umol/l measured at 20 degC after 5 days; format: functional; details: 120 h, read-out: GI
Sclerotinia sclerotiorum [9] = assay: Antifungal activity against Sclerotinia sclerotiorum assessed as inhibition of mycelial growth in contact phase at 1501 umol/l measured at 20 degC after 5 days; format: functional; details: 120 h, read-out: GI
Sclerotinia sclerotiorum [10] = assay: Antifungal activity against Sclerotinia sclerotiorum assessed as inhibition of mycelial growth in contact phase at 751 umol/l measured at 20 degC after 5 days; format: functional; details: 120 h, read-out: GI
Sclerotinia sclerotiorum [11] = assay: Antifungal activity against Sclerotinia sclerotiorum assessed as inhibition of mycelial growth in contact phase at 676 umol/l measured at 20 degC after 5 days; format: functional; details: 120 h, read-out: GI
Sclerotinia sclerotiorum [12] = assay: Antifungal activity against Sclerotinia sclerotiorum assessed as inhibition of mycelial growth in contact phase at 525 umol/l measured at 20 degC after 5 days; format: functional; details: 120 h, read-out: GI
Sclerotinia sclerotiorum [13] = assay: Fungistatic activity in Sclerotinia sclerotiorum assessed as inhibition of carpogenic germination in volatile phase at 75 umol/l measured at 20 degC after 5 days relative to control; format: functional; details: 120 h
Sclerotinia sclerotiorum [14] = assay: Fungistatic activity in Sclerotinia sclerotiorum assessed as inhibition of carpogenic germination in volatile phase at 38 umol/l measured at 20 degC after 5 days relative to control; format: functional; details: 120 h
Sclerotinia sclerotiorum [15] = assay: Fungistatic activity in Sclerotinia sclerotiorum assessed as inhibition of carpogenic germination in volatile phase at 751 umol/l measured at 20 degC after 5 days relative to control; format: functional; details: 120 h
Sclerotinia sclerotiorum [16] = assay: Fungistatic activity in Sclerotinia sclerotiorum assessed as inhibition of carpogenic germination in volatile phase at 375 umol/l measured at 20 degC after 5 days relative to control; format: functional; details: 120 h
Sclerotinia sclerotiorum [17] = assay: Fungistatic activity in Sclerotinia sclerotiorum assessed as sclerotial viability measured at 20 degC after 5 days; format: functional, organism-based; details: 120 h
Sclerotinia sclerotiorum [18] = assay: Fungistatic activity in Sclerotinia sclerotiorum assessed as inhibition of mycelial growth in volatile phase measured at 20 degC after 5 days; format: functional, organism-based; details: 120 h
Sclerotinia sclerotiorum [19] = assay: Fungistatic activity in Sclerotinia sclerotiorum assessed as inhibition of mycelial growth in contact phase measured at 20 degC after 5 days; format: functional, organism-based; details: 120 h
Sclerotinia sclerotiorum [20] = assay: Fungitoxic activity in Sclerotinia sclerotiorum assessed as viability in volatile phase at 225 umol/l measured at 20 degC after 5 days relative to control; format: functional; details: 120 h, read-out: GI
Sclerotinia sclerotiorum [21] = assay: Fungitoxic activity in Sclerotinia sclerotiorum assessed as inhibition of mycelial growth in contact phase at 2252 umol/l measured at 20 degC after 5 days relative to control; format: functional; details: 120 h, read-out: GI
Sclerotinia sclerotiorum [22] = assay: Fungistatic activity in Sclerotinia sclerotiorum assessed as inhibition of mycelial growth in contact phase at 1501 umol/l measured at 20 degC after 5 days relative to control; format: functional; details: 120 h, read-out: GI
Sclerotinia sclerotiorum [23] = assay: Fungitoxic activity in Sclerotinia sclerotiorum assessed as inhibition of mycelial growth in volatile phase at 751 umol/l measured at 20 degC after 5 days relative to control; format: functional; details: 120 h, read-out: GI
Sclerotinia sclerotiorum [24] = assay: Antifungal activity against Sclerotinia sclerotiorum assessed as inhibition of germination in volatile phase at 225 umol/l measured at 20 degC after 5 days; format: functional; details: 120 h
Sclerotinia sclerotiorum [25] = assay: Antifungal activity against Sclerotinia sclerotiorum assessed as inhibition of germination in volatile phase at 75 umol/l measured at 20 degC after 5 days; format: functional; details: 120 h
Sclerotinia sclerotiorum [26] = assay: Antifungal activity against Sclerotinia sclerotiorum assessed as inhibition of germination in volatile phase at 38 umol/l measured at 20 degC after 5 days; format: functional; details: 120 h
Sclerotinia sclerotiorum [27] = assay: Fungistatic activity in Sclerotinia sclerotiorum assessed as inhibition of mycelial growth in volatile phase at 525 umol/l measured at 20 degC after 5 days relative to control; format: functional; details: 120 h, read-out: GI
Sclerotinia sclerotiorum [28] = assay: Antifungal activity against Sclerotinia sclerotiorum assessed as inhibition of germination in volatile phase at 751 umol/l measured at 20 degC after 5 days; format: functional; details: 120 h
Sclerotinia sclerotiorum [29] = assay: Antifungal activity against Sclerotinia sclerotiorum assessed as inhibition of germination in volatile phase at 375 umol/l measured at 20 degC after 5 days; format: functional; details: 120 h

S=C=NCc1ccccc1 [BENZYL ISOTHIOCYANATE]
inhibition in vivo at 150 µM (Sclerotinia sclerotiorum [1]): 63.3% | inhibition in vivo at 75 µM (Sclerotinia sclerotiorum [2]): 36.7% | inhibition of growth at 751 µM (Sclerotinia sclerotiorum [3]): 100% | inhibition of growth at 525 µM (Sclerotinia sclerotiorum [4]): 100% | inhibition of growth at 375 µM (Sclerotinia sclerotiorum [5]): 78.2% | inhibition of growth at 75 µM (Sclerotinia sclerotiorum [6]): 71.2% | inhibition of growth at 38 µM (Sclerotinia sclerotiorum [7]): 35% | inhibition of growth at 2252 µM (Sclerotinia sclerotiorum [8]): 100% | inhibition of growth at 1501 µM (Sclerotinia sclerotiorum [9]): 100% | inhibition of growth at 751 µM (Sclerotinia sclerotiorum [10]): 100% | inhibition of growth at 676 µM (Sclerotinia sclerotiorum [11]): 37% | inhibition of growth at 525 µM (Sclerotinia sclerotiorum [12]): 5% | inhibition at 75 µM (Sclerotinia sclerotiorum [13]): 62.5% | inhibition at 38 µM (Sclerotinia sclerotiorum [14]): 55% | inhibition at 751 µM (Sclerotinia sclerotiorum [15]): 92.5% | inhibition at 375 µM (Sclerotinia sclerotiorum [16]): 72.5% | EC50 (Sclerotinia sclerotiorum [17]): 75.1 µM | EC50 (Sclerotinia sclerotiorum [18]): 60.1 µM | EC50 (Sclerotinia sclerotiorum [19]): 676 µM | inhibition of growth at 225 µM (Sclerotinia sclerotiorum [20]): 100% | inhibition of growth at 2252 µM (Sclerotinia sclerotiorum [21]): 100% | inhibition of growth at 1501 µM (Sclerotinia sclerotiorum [22]): 100% | inhibition of growth at 751 µM (Sclerotinia sclerotiorum [23]): 100% | inhibition at 225 µM (Sclerotinia sclerotiorum [24]): 100% | inhibition at 75 µM (Sclerotinia sclerotiorum [25]): 53.3% | inhibition at 38 µM (Sclerotinia sclerotiorum [26]): 6.7% | inhibition of growth at 525 µM (Sclerotinia sclerotiorum [27]): 100% | inhibition at 751 µM (Sclerotinia sclerotiorum [28]): 100% | inhibition at 375 µM (Sclerotinia sclerotiorum [29]): 100%
